# Reference: ChEMBL document CHEMBL1201862, “PubChem BioAssay data set” (2004)
#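 Exposure lasted 48 hours, with cells grown in 96-well plates and compounds tested at five concentrations. GI50 marks 50% less growth.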 Activity calls are given as the source filed them. No stated cut-off is given here; in the data, active = GI50 up to about 1.1 µM and inactive = higher.
# Key:
# Test in all cases: NCI-60 cell line screen, 48 h
# OVCAR-8 = test system: OVCAR-8
# HCT-116 = test system: HCT-116
# SW-620 = test system: SW-620
# NCI/ADR-RES = test system: NCI/ADR-RES
# ACHN = test system: ACHN
# Malme-3M = test system: Malme-3M
# HL-60 = test system: HL-60
# MCF7 = test system: MCF7
# 786-0 = test system: 786-0
# CAKI-1 = test system: CAKI-1
# LOX IMVI = test system: LOX IMVI
# KM12 = test system: KM12
# SF-268 = test system: SF-268
# Hs-578T = test system: Hs-578T
# SK-OV-3 = test system: SK-OV-3
# SK-MEL-28 = test system: SK-MEL-28
# RPMI-8226 = test system: RPMI-8226
# MDA-MB-231 = test system: MDA-MB-231
# TK-10 = test system: TK-10
# SF-539 = test system: SF-539
# SNB-75 = test system: SNB-75
# NCI-H460 = test system: NCI-H460
# UACC-257 = test system: UACC-257
# HT-29 = test system: HT-29
# RXF 393 = test system: RXF 393
# EKVX = test system: EKVX
# NCI-H23 = test system: NCI-H23
# NCI-H226 = test system: NCI-H226
# U-251 = test system: U-251
# IGROV-1 = test system: IGROV-1
# M14 = test system: M14
# SR = test system: SR
# CCRF-CEM = test system: CCRF-CEM
# OVCAR-3 = test system: OVCAR-3
# A549 = test system: A549
# SK-MEL-5 = test system: SK-MEL-5
# OVCAR-5 = test system: OVCAR-5
# SNB-19 = test system: SNB-19
# MDA-N = test system: MDA-N
# K562 = test system: K562
# NCI-H522 = test system: NCI-H522
# SF-295 = test system: SF-295
# OVCAR-4 = test system: OVCAR-4
# HCC 2998 = test system: HCC 2998
# HOP-62 = test system: HOP-62
# T47D = test system: T47D
# HOP-92 = test system: HOP-92
# MOLT-4 = test system: MOLT-4
# PC-3 = test system: PC-3
# COLO 205 = test system: COLO 205
# A498 = test system: A498
# SK-MEL-2 = test system: SK-MEL-2
# SN12C = test system: SN12C
# MDA-MB-435 = test system: MDA-MB-435
# BT-549 = test system: BT-549
# HCT-15 = test system: HCT-15
# UO-31 = test system: UO-31
# DU-145 = test system: DU-145
# UACC-62 = test system: UACC-62
smiles,measurement,setting,value
Brc1ccc(CCNCCN2CCCCC2)cc1,GI50,OVCAR-8,16.5 µM (inactive)
same,GI50,HCT-116,12.1 µM (inactive)
same,GI50,SW-620,17 µM (inactive)
same,GI50,NCI/ADR-RES,21.1 µM (inactive)
same,GI50,ACHN,20.6 µM (inactive)
same,GI50,Malme-3M,17.7 µM (inactive)
same,GI50,HL-60,33 µM (inactive)
same,GI50,MCF7,15.7 µM (inactive)
same,GI50,786-0,14.1 µM (inactive)
same,GI50,CAKI-1,14.1 µM (inactive)
same,GI50,LOX IMVI,14.1 µM (inactive)
same,GI50,KM12,16.6 µM (inactive)
same,GI50,SF-268,15.5 µM (inactive)
same,GI50,Hs-578T,20.3 µM (inactive)
same,GI50,SK-OV-3,21.2 µM (inactive)
same,GI50,SK-MEL-28,11.8 µM (inactive)
same,GI50,RPMI-8226,37.7 µM (inactive)
same,GI50,MDA-MB-231,8.05 µM (inactive)
same,GI50,TK-10,15.5 µM (inactive)
same,GI50,SF-539,10.9 µM (inactive)
same,GI50,SNB-75,12.8 µM (inactive)
same,GI50,NCI-H460,14.7 µM (inactive)
same,GI50,UACC-257,14.8 µM (inactive)
same,GI50,HT-29,4 µM (inactive)
same,GI50,RXF 393,33.6 µM (inactive)
same,GI50,EKVX,33.1 µM (inactive)
same,GI50,NCI-H23,16.4 µM (inactive)
same,GI50,NCI-H226,37.8 µM (inactive)
same,GI50,U-251,18.4 µM (inactive)
same,GI50,IGROV-1,17.1 µM (inactive)
same,GI50,M14,15.6 µM (inactive)
same,GI50,SR,> 100 µM (inactive)
same,GI50,CCRF-CEM,14.2 µM (inactive)
same,GI50,OVCAR-3,15.4 µM (inactive)
same,GI50,A549,16.4 µM (inactive)
same,GI50,SK-MEL-5,8.07 µM (inactive)
same,GI50,OVCAR-5,17 µM (inactive)
same,GI50,SNB-19,17.3 µM (inactive)
same,GI50,MDA-N,10.7 µM (inactive)
same,GI50,K562,4.1 µM (inactive)
same,GI50,NCI-H522,16.4 µM (inactive)
same,GI50,SF-295,18.3 µM (inactive)
same,GI50,OVCAR-4,19.3 µM (inactive)
same,GI50,HCC 2998,14.5 µM (inactive)
same,GI50,HOP-62,20.4 µM (inactive)
same,GI50,T47D,15.6 µM (inactive)
same,GI50,HOP-92,10.8 µM (inactive)
same,GI50,MOLT-4,62.1 µM (inactive)
same,GI50,PC-3,15.6 µM (inactive)
same,GI50,COLO 205,12.9 µM (inactive)
same,GI50,A498,18 µM (inactive)
same,GI50,SK-MEL-2,19.4 µM (inactive)
same,GI50,SN12C,25.9 µM (inactive)
same,GI50,MDA-MB-435,5.47 µM (inactive)
same,GI50,BT-549,15.7 µM (inactive)
same,GI50,HCT-15,18.1 µM
same,GI50,UO-31,12.2 µM (inactive)
same,GI50,DU-145,35.6 µM (inactive)
Cc1cccc(CC(Cc2ccc(C)cc2C(=O)O)C(=O)O)c1 (configuration not stated),GI50,OVCAR-8,> 100 µM (inactive)
same,GI50,HCT-116,> 100 µM (inactive)
same,GI50,SW-620,> 100 µM (inactive)
same,GI50,NCI/ADR-RES,> 100 µM (inactive)
same,GI50,ACHN,> 100 µM (inactive)
same,GI50,Malme-3M,> 100 µM (inactive)
same,GI50,HL-60,> 100 µM (inactive)
same,GI50,MCF7,> 100 µM (inactive)
same,GI50,786-0,> 100 µM (inactive)
same,GI50,CAKI-1,> 100 µM (inactive)
same,GI50,LOX IMVI,> 100 µM (inactive)
same,GI50,KM12,> 100 µM (inactive)
same,GI50,SF-268,> 100 µM (inactive)
same,GI50,Hs-578T,> 100 µM (inactive)
same,GI50,SK-OV-3,74.1 µM (inactive)
same,GI50,SK-MEL-28,> 100 µM (inactive)
same,GI50,RPMI-8226,> 100 µM (inactive)
same,GI50,MDA-MB-231,> 100 µM (inactive)
same,GI50,TK-10,> 100 µM (inactive)
same,GI50,SF-539,> 100 µM (inactive)
same,GI50,SNB-75,> 100 µM (inactive)
same,GI50,NCI-H460,> 100 µM (inactive)
same,GI50,UACC-257,> 100 µM (inactive)
same,GI50,UACC-62,42 µM (inactive)
same,GI50,HT-29,> 100 µM (inactive)
same,GI50,RXF 393,> 100 µM (inactive)
same,GI50,EKVX,> 100 µM (inactive)
same,GI50,NCI-H23,> 100 µM (inactive)
same,GI50,NCI-H226,> 100 µM (inactive)
same,GI50,U-251,> 100 µM (inactive)
same,GI50,IGROV-1,> 100 µM (inactive)
same,GI50,M14,> 100 µM (inactive)
same,GI50,SR,> 100 µM (inactive)
same,GI50,CCRF-CEM,> 100 µM (inactive)
same,GI50,OVCAR-3,> 100 µM (inactive)
same,GI50,A549,> 100 µM (inactive)
same,GI50,SK-MEL-5,> 100 µM (inactive)
same,GI50,OVCAR-5,> 100 µM (inactive)
same,GI50,SNB-19,> 100 µM (inactive)
same,GI50,MDA-N,> 100 µM (inactive)
same,GI50,K562,> 100 µM (inactive)
same,GI50,NCI-H522,> 100 µM (inactive)
same,GI50,SF-295,> 100 µM (inactive)
same,GI50,OVCAR-4,> 100 µM (inactive)
same,GI50,HCC 2998,> 100 µM (inactive)
same,GI50,HOP-62,> 100 µM (inactive)
same,GI50,T47D,> 100 µM (inactive)
same,GI50,HOP-92,> 100 µM (inactive)
same,GI50,MOLT-4,> 100 µM (inactive)
same,GI50,PC-3,> 100 µM (inactive)
same,GI50,COLO 205,> 100 µM (inactive)
same,GI50,A498,> 100 µM (inactive)
same,GI50,SK-MEL-2,> 100 µM (inactive)
same,GI50,SN12C,> 100 µM (inactive)
same,GI50,MDA-MB-435,> 100 µM (inactive)
same,GI50,BT-549,> 100 µM (inactive)
same,GI50,HCT-15,> 100 µM
same,GI50,UO-31,> 100 µM (inactive)
same,GI50,DU-145,> 100 µM (inactive)
